Results reported in the NIST ThermoML archive (doi:10.1021/je8001267).

Test: wn = mass fraction of the nth substance listed
Settings: Liquid

Cl.N [ammonium chloride (NH4Cl)] + N
mass density [kg/m3]
Settings | 303.15 K | 313.15 K | 323.15 K | 333.15 K | 343.15 K | 353.15 K | 363.15 K | 373.15 K
10000 kPa, w1 = 0.1133 | 668.2 | 655.5 | 642.7 | 628.8 | 613.4 | 597.6 | 581.2 | 568.8
10000 kPa, w1 = 0.2224 | 729.3 | 716 | 707.1 | 694.9 | 682.5 | 669.2 | 654.5 | 644.4
10000 kPa, w1 = 0.3134 | 787.8 | 778.1 | 767.7 | 756.3 | 745.7 | 735.4 | 724.1 | 713.8
10000 kPa, w1 = 0.4285 | 833 | 825.9 | 817.4 | 809.5 | 801.9 | 793.4 | 784.2 | 776.9
10000 kPa, w1 = 0.5068 | 873.3 | 867.9 | 860 | 853.2 | 846 | 838 | 830.5 | 823.8
15000 kPa, w1 = 0.1133 | 673.3 | 660.5 | 648.4 | 634.7 | 620.3 | 605.7 | 588.8 | 577.2
15000 kPa, w1 = 0.2224 | 733.1 | 720.5 | 711.9 | 699.8 | 688.1 | 675.5 | 661.6 | 651.7
15000 kPa, w1 = 0.3134 | 791.5 | 783.6 | 772.6 | 761.1 | 751.6 | 741.5 | 731.7 | 721.3
15000 kPa, w1 = 0.4285 | 836.1 | 828.4 | 820.9 | 812.4 | 805.2 | 796.6 | 789.2 | 781.3
15000 kPa, w1 = 0.5068 | 877.7 | 871.7 | 864.7 | 857.9 | 850.6 | 844 | 837 | 830.3
20000 kPa, w1 = 0.1133 | 677.8 | 665.3 | 654.2 | 640.8 | 627.1 | 612.9 | 596.4 | 585.5
20000 kPa, w1 = 0.2224 | 736.6 | 725.1 | 715.8 | 704.3 | 692.5 | 680.2 | 667.3 | 657.3
20000 kPa, w1 = 0.3134 | 795.8 | 786.8 | 776.3 | 765.1 | 755 | 746.5 | 736.8 | 726.2
20000 kPa, w1 = 0.4285 | 838.2 | 831 | 823.4 | 814.4 | 807.6 | 799.5 | 792 | 784.1
20000 kPa, w1 = 0.5068 | 880.4 | 874.4 | 867.9 | 860.5 | 854.2 | 847.5 | 840.5 | 834
25000 kPa, w1 = 0.1133 | 682.2 | 670.1 | 658.7 | 646.7 | 633.1 | 619.7 | 603.4 | 593
25000 kPa, w1 = 0.2224 | 740.1 | 729.5 | 719.7 | 708.7 | 696.9 | 684.7 | 672.2 | 662.3
25000 kPa, w1 = 0.3134 | 798.5 | 789.7 | 779.4 | 768.2 | 758.3 | 750.3 | 741.5 | 730.7
25000 kPa, w1 = 0.4285 | 840.8 | 833.5 | 825.9 | 817.9 | 810 | 801.9 | 794.3 | 786.5
25000 kPa, w1 = 0.5068 | 883.2 | 876.6 | 870.6 | 863.1 | 857.4 | 850.1 | 843.5 | 837
30000 kPa, w1 = 0.1133 | 686.7 | 674.6 | 663.4 | 652.3 | 638.6 | 626.1 | 610.6 | 600.3
30000 kPa, w1 = 0.2224 | 743.8 | 734.2 | 723.4 | 712.9 | 701.2 | 689.2 | 677.3 | 667.2
30000 kPa, w1 = 0.3134 | 801.6 | 792.5 | 782.4 | 770.8 | 761.1 | 754 | 745.7 | 734.6
30000 kPa, w1 = 0.4285 | 842.9 | 835.6 | 827.4 | 820.4 | 812 | 804.2 | 796.4 | 788.7
30000 kPa, w1 = 0.5068 | 885.4 | 878.8 | 872.8 | 865.3 | 859.7 | 852.7 | 846 | 839.6
